US4689426A, “5-alkylidene-2-halo-4-substituted-2-cyclopentenone and process for production thereof” (Teijin Limited, priority 1983, dated 1987)
Values after ≈ are worked out from the molar mass of the structure shown.

Experiments:
L1210 leukemia cells = assay: Inhibition of proliferation of L1210 leukemia cells; type: cell-based; conditions: Mus musculus, L1210, 96 h; 4 days at 37° C., trypan blue count of surviving cells
Procedure: Measurement of the action of inhibiting proliferation of L1210 leukemia cells
L1210 leukemia cells were added to an RPMI medium containing 10% FCS (fetal calf serum), and the concentration of the cells was adjusted to 1×10^5 cells/ml. Each of the test compounds shown in Table 1 was dissolved in 99.5% ethanol. Prior to use, the final concentration of the ethanol solution was adjusted to less than 0.1%, and it was added to the culture medium. The culture medium was then maintained at 37° C. in a stationary condition for 4 days. After the cultivation, the number of surviving cells was measured by dyeing with trypan blue. As a control, 0.1% ethanol was used. A dose-response curve was plotted from the ratios of proliferation against the control, and IC50 was determined.

[1] = system: L1210 mouse leukemia cells; conditions: Biochem. Biophys. Res. Commun., 105, 956 (1982); cited from earlier work
[2] = system: Ehrlich ascites carcinoma cells; assay: Antitumor effect on Ehrlich ascites carcinoma, survival of mice; type: in vivo, ICR mice; conditions: over the control
Procedure: Measurement of the antitumor effect on Ehrich ascites carcinoma
1×10^5 Ehrlich ascites carcinoma cells were intraperitoneally administered to ICR mice. After the lapse of 24 hours, 30 mg/kg/day or 20 mg/kg/day of 2-chloro-4-butyl-5-(6-carboxyhexylidene)-2-cyclopentenone (E-form) was intraperitoneally administered to the mice for 5 days. The periods of survival of these animals were examined.

P. vulgaris H × 19 = assay: Antimicrobial activity, serial two-fold dilution; type: cell-based; conditions: Proteus vulgaris; Gram (-); heart infusion agar
Procedure: (§1) Measurement of the antimicrobial activity against Gram positive and negative bacterium
(§2) One loopful of cell suspension (10^8 cells/ml) was inoculated on heart infusion agar medium containing various levels of a compound of this invention (2-chloro-4-n-butyl-5-(6-carboxyhexylidene)-2-cyclopentenone). The minimum inhibitory concentrations (MIC) was determined by a standard serial two-fold dilution method.

S. aureus MS 353 = assay: Antimicrobial activity, serial two-fold dilution; type: cell-based; conditions: Staphylococcus aureus, MS353; Gram (+); heart infusion agar
Procedure: as §1, §2

P. aeruginosa IFO 3445 = assay: Antimicrobial activity, serial two-fold dilution; type: cell-based; conditions: Pseudomonas aeruginosa, IFO3445; Gram (-); heart infusion agar
Procedure: as §1, §2

B. subtilis ATCC 6633 = assay: Antimicrobial activity, serial two-fold dilution; type: cell-based; conditions: Bacillus subtilis, ATCC6633; Gram (+); heart infusion agar
Procedure: as §1, §2

HSV type-2 (YS-4) = assay: Inhibition of herpes simplex virus replication in human embryo lung cells, plaque assay on Vero cells; type: cell-based, herpes simplex virus type-2 (strain YS-4); conditions: 4 μg/ml, 24 hrs. pretreatment and 24 hrs. after infection; m.o.i. 1; control 1.4 × 10^8; mean of at least three wells
Procedure: (§3) Measurement of inhibitory activities on herpes simplex virus replication
(§4) To evaluate the inhibitory effect of 2-chloro-4-(3,7-dimethyl-6-octenyl)-5-(6-carbomethoxyhexylidene)-2-cyclopentenone against herpes simplex virus [HSV] replication in vitro, human embryo lung cells [HELR66] were grown in 6-well Falcon plates in Eagle's minimal essential medium [MEM] supplemented with 5 percent fetal calf serum [CS] and antibiotics.
(§5) The test compound was dissolved in absolute ethanol and diluted to the appropriate concentrations with culture medium just before use. The cells were incubated at 37° C. in a humidified atmosphere containing 5 percent CO2 and 95 percent air. Confluent monolayers of the cells were treated with 4 μg/ml of the test compound for 24 hrs. before HSV infection. The test compound pretreated cells were infected with HSV type-1 (strain KOS) or HSV type-2 (strain YS-4) at a m.o.i. of 1. After 1 hr. of incubation at 37° C., the cells were further incubated for 24 hrs. with MEM containing with 2 percent CS, antibiotics and 4 μg/ml the test compound. Control media contained the identical concentration of ethanol. HSV infected HEL-R66 cells were harvested with a rubber policeman 24 hrs. after HSV inoculation and stored at -70° C. Titrations were performed by plaque assays on Vero cells.

HSV type-1 (KOS) = assay: as above; type: cell-based, herpes simplex virus type-1 (strain KOS); conditions: 4 μg/ml, 24 hrs. pretreatment and 24 hrs. after infection; m.o.i. 1; control 1.4 × 10^8; mean of at least three wells
Procedure: as §3, §4, §5

CCCCC1C=C(Br)C(=O)/C1=C/CCCCCC(=O)OC (single isomer, unassigned) [2-bromo-4-butyl-5-(6-methoxycarbonylhexylidene)-2-cyclopentenone]
IC50 (L1210 leukemia cells): 0.2 µg/mL (≈ 0.56 µM)

CCCCC[C@H](O)/C=C/[C@H]1C(=O)C[C@H](O)[C@@H]1C/C=C\CCCC(=O)O [PGD2]
IC50 of PGD2 on L1210 cells [1]: 2.4 micrograms/ml

CCCCC1C=C(Cl)C(=O)/C1=C\CCCCCC(=O)OC (single isomer, unassigned) [2-chloro-4-butyl-5-(6-methoxycarbonylhexylidene)-2-cyclopentenone]
IC50 (L1210 leukemia cells): < 0.3 µg/mL

CCCCC1C=C(Br)C(=O)/C1=C\CCCCCC(=O)OC (single isomer, unassigned) [2-bromo-4-butyl-5-(6-methoxycarbonylhexylidene)-2-cyclopentenone]
IC50 (L1210 leukemia cells): 0.1 µg/mL (≈ 0.28 µM)

CCCCC1C=C(Cl)C(=O)/C1=C/CCCCCC(=O)OC (single isomer, unassigned) [2-chloro-4-butyl-5-(6-methoxycarbonylhexylidene)-2-cyclopentenone]
IC50 (L1210 leukemia cells): 0.1 µg/mL (≈ 0.32 µM)

CCCCC1C=C(Cl)C(=O)/C1=C/CCCCCC(=O)O (stereo not shown) [2-chloro-4-butyl-5-(6-carboxyhexylidene)-2-cyclopentenone]
increase of life span (ILS%) ([2]; 20 mg/kg/day i.p. for 5 days): 40.2% | increase of life span (ILS%) ([2]; 30 mg/kg/day i.p. for 5 days): 30.7% | MIC (P. vulgaris H × 19): 25 µg/mL (≈ 83.7 µM) | MIC (S. aureus MS 353): 100 µg/mL (≈ 335 µM) | MIC (P. aeruginosa IFO 3445): 100 µg/mL (≈ 335 µM) | MIC (B. subtilis ATCC 6633): 6.24 µg/mL (≈ 20.9 µM)

COC(=O)CCCCCC=C1C(=O)C(Cl)=CC1CCC(C)CCC=C(C)C (stereo not shown) [2-chloro-4-(3,7-dimethyl-6-octenyl)-5-(6-carbomethoxyhexylidene)-2-cyclopentenone]
Virus yield (HSV type-2 (YS-4)): 5.4 × 10^4 pfu/ml | Virus yield (HSV type-1 (KOS)): 3.1 × 10^4 pfu/ml
